Assay results reported in PubChem BioAssay (NCI).
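Values below derive from 48-hour exposures of cells grown in 96-well plates, with endpoints linearly interpolated between the two concentrations bracketing the appropriate inhibition level. Here, GI50 denotes the concentration required for 50% inhibition of growth. TGI: total growth inhibition.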

Legend:
Experiment in all cases: NCI tumour cell line growth inhibition, 48 h
NCI/ADR-RES ovarian = tested on: NCI/ADR-RES ovarian
U251 CNS = tested on: U251 CNS
SK-OV-3 ovarian = tested on: SK-OV-3 ovarian
EKVX NSCLC = tested on: EKVX NSCLC
RXF 393 renal = tested on: RXF 393 renal
OVCAR-8 ovarian = tested on: OVCAR-8 ovarian
TK-10 renal = tested on: TK-10 renal
NCI-H23 lung = tested on: NCI-H23 lung
A498 renal = tested on: A498 renal
NCI-H460 lung = tested on: NCI-H460 lung
UACC-257 melanoma = tested on: UACC-257 melanoma
MDA-MB-231 breast = tested on: MDA-MB-231 breast
HT29 colon = tested on: HT29 colon
PC-3 prostate = tested on: PC-3 prostate
A549 NSCLC = tested on: A549 NSCLC
SNB-75 CNS = tested on: SNB-75 CNS
MALME-3M melanoma = tested on: MALME-3M melanoma
MDA-MB-435 = tested on: MDA-MB-435
ACHN renal = tested on: ACHN renal
CAKI-1 renal = tested on: CAKI-1 renal
HOP-92 NSCLC = tested on: HOP-92 NSCLC
COLO 205 colon = tested on: COLO 205 colon
SF-295 CNS = tested on: SF-295 CNS
SNB-19 CNS = tested on: SNB-19 CNS
DU-145 prostate = tested on: DU-145 prostate
HCT-15 colon = tested on: HCT-15 colon
CCRF-CEM leukemia = tested on: CCRF-CEM leukemia
SN12C renal = tested on: SN12C renal
HL-60(TB) leukemia = tested on: HL-60(TB) leukemia
SK-MEL-28 melanoma = tested on: SK-MEL-28 melanoma
SW-620 colon = tested on: SW-620 colon
MOLT-4 leukemia = tested on: MOLT-4 leukemia
UACC-62 melanoma = tested on: UACC-62 melanoma
M14 melanoma = tested on: M14 melanoma
HS 578T breast = tested on: HS 578T breast
UO-31 renal = tested on: UO-31 renal
SR leukemia = tested on: SR leukemia
HOP-62 NSCLC = tested on: HOP-62 NSCLC
SF-268 CNS = tested on: SF-268 CNS
HCT-116 colon = tested on: HCT-116 colon
SF-539 CNS = tested on: SF-539 CNS
K-562 leukemia = tested on: K-562 leukemia
RPMI-8226 leukemia = tested on: RPMI-8226 leukemia
MCF7 breast = tested on: MCF7 breast
NCI-H226 lung = tested on: NCI-H226 lung
LOX IMVI melanoma = tested on: LOX IMVI melanoma
KM12 colon = tested on: KM12 colon
OVCAR-3 ovarian = tested on: OVCAR-3 ovarian
SK-MEL-5 melanoma = tested on: SK-MEL-5 melanoma
OVCAR-5 ovarian = tested on: OVCAR-5 ovarian
T-47D breast = tested on: T-47D breast
786-0 renal = tested on: 786-0 renal
SK-MEL-2 melanoma = tested on: SK-MEL-2 melanoma
HCC-2998 colon = tested on: HCC-2998 colon
OVCAR-4 ovarian = tested on: OVCAR-4 ovarian
BT-549 breast = tested on: BT-549 breast

CC(=O)O/N=C/c1c2ccccc2cc2ccccc12
TGI (NCI/ADR-RES ovarian): > 100 µM | TGI (U251 CNS): > 100 µM | TGI (SK-OV-3 ovarian): 69.6 µM | TGI (EKVX NSCLC): > 100 µM | TGI (RXF 393 renal): 86.2 µM | TGI (OVCAR-8 ovarian): 50.3 µM | TGI (TK-10 renal): > 100 µM | TGI (NCI-H23 lung): > 100 µM | TGI (A498 renal): > 100 µM | TGI (NCI-H460 lung): > 100 µM | TGI (UACC-257 melanoma): > 100 µM | TGI (MDA-MB-231 breast): > 100 µM | TGI (HT29 colon): > 100 µM | TGI (PC-3 prostate): > 100 µM | TGI (A549 NSCLC): > 100 µM | TGI (SNB-75 CNS): 51.5 µM | TGI (MALME-3M melanoma): > 100 µM | TGI (MDA-MB-435): > 100 µM | TGI (ACHN renal): 68.5 µM | TGI (CAKI-1 renal): > 100 µM | TGI (HOP-92 NSCLC): > 100 µM | TGI (COLO 205 colon): > 100 µM | TGI (SF-295 CNS): > 100 µM | TGI (SNB-19 CNS): > 100 µM | TGI (DU-145 prostate): > 100 µM | TGI (HCT-15 colon): > 100 µM | TGI (CCRF-CEM leukemia): > 100 µM | TGI (SN12C renal): > 100 µM | TGI (HL-60(TB) leukemia): > 100 µM | TGI (SK-MEL-28 melanoma): > 100 µM | TGI (SW-620 colon): > 100 µM | TGI (MOLT-4 leukemia): > 100 µM | TGI (UACC-62 melanoma): > 100 µM | TGI (M14 melanoma): > 100 µM | TGI (HS 578T breast): > 100 µM | TGI (UO-31 renal): > 100 µM | TGI (SR leukemia): > 100 µM | TGI (HOP-62 NSCLC): > 100 µM | TGI (SF-268 CNS): > 100 µM | TGI (HCT-116 colon): > 100 µM | TGI (SF-539 CNS): > 100 µM | TGI (K-562 leukemia): > 100 µM | TGI (RPMI-8226 leukemia): > 100 µM | TGI (MCF7 breast): > 100 µM | TGI (NCI-H226 lung): > 100 µM | TGI (LOX IMVI melanoma): > 100 µM | TGI (KM12 colon): > 100 µM | TGI (OVCAR-3 ovarian): > 100 µM | TGI (SK-MEL-5 melanoma): > 100 µM | TGI (OVCAR-5 ovarian): > 100 µM | TGI (T-47D breast): > 100 µM

c1coc(-c2c3ccc(=[N+]4CCCCC4)cc-3oc3cc(N4CCCCC4)ccc23)c1
GI50 (786-0 renal): 0.0455 µM | TGI (786-0 renal): 0.424 µM | GI50 (SK-OV-3 ovarian): 0.246 µM | TGI (SK-OV-3 ovarian): 0.819 µM | GI50 (RXF 393 renal): 0.0437 µM | TGI (RXF 393 renal): 0.228 µM | GI50 (OVCAR-8 ovarian): 0.0449 µM | TGI (OVCAR-8 ovarian): 1.1 µM | GI50 (TK-10 renal): 0.036 µM | TGI (TK-10 renal): 0.382 µM | GI50 (SK-MEL-2 melanoma): 0.119 µM | TGI (SK-MEL-2 melanoma): 1.09 µM | GI50 (A498 renal): 0.0784 µM | TGI (A498 renal): 0.568 µM | GI50 (UACC-257 melanoma): 0.0432 µM | TGI (UACC-257 melanoma): 0.191 µM | GI50 (PC-3 prostate): 0.0702 µM | TGI (PC-3 prostate): 1.06 µM | GI50 (SNB-75 CNS): 0.0903 µM | TGI (SNB-75 CNS): 0.588 µM | GI50 (MALME-3M melanoma): 0.0423 µM | TGI (MALME-3M melanoma): 0.184 µM | GI50 (ACHN renal): 0.0327 µM | TGI (ACHN renal): 0.12 µM | GI50 (CAKI-1 renal): 0.0313 µM | TGI (CAKI-1 renal): 0.105 µM | GI50 (HOP-92 NSCLC): 0.0502 µM | TGI (HOP-92 NSCLC): 0.19 µM | GI50 (SF-295 CNS): 0.0937 µM | TGI (SF-295 CNS): 0.417 µM | GI50 (SNB-19 CNS): 0.195 µM | TGI (SNB-19 CNS): 1.56 µM | GI50 (DU-145 prostate): 0.088 µM | TGI (DU-145 prostate): 0.475 µM | GI50 (CCRF-CEM leukemia): 0.0306 µM | TGI (CCRF-CEM leukemia): 1.11 µM | GI50 (SN12C renal): 0.0591 µM | TGI (SN12C renal): 0.278 µM | GI50 (HL-60(TB) leukemia): 0.0921 µM | TGI (HL-60(TB) leukemia): 0.468 µM | GI50 (SK-MEL-28 melanoma): 0.114 µM | TGI (SK-MEL-28 melanoma): 0.854 µM | GI50 (MOLT-4 leukemia): 0.0463 µM | TGI (MOLT-4 leukemia): 0.903 µM | GI50 (UACC-62 melanoma): 0.102 µM | TGI (UACC-62 melanoma): 1.09 µM | GI50 (HCC-2998 colon): 0.0751 µM | TGI (HCC-2998 colon): 0.331 µM | GI50 (UO-31 renal): 0.0353 µM | TGI (UO-31 renal): 0.336 µM | GI50 (HOP-62 NSCLC): 0.0905 µM | TGI (HOP-62 NSCLC): 0.435 µM | GI50 (SF-268 CNS): 0.0667 µM | TGI (SF-268 CNS): 0.472 µM | GI50 (K-562 leukemia): 0.0541 µM | TGI (K-562 leukemia): > 100 µM | GI50 (NCI-H226 lung): 0.138 µM | TGI (NCI-H226 lung): 1.87 µM | GI50 (OVCAR-4 ovarian): 0.0707 µM | TGI (OVCAR-4 ovarian): 0.883 µM | GI50 (OVCAR-3 ovarian): 0.033 µM | TGI (OVCAR-3 ovarian): 0.126 µM | GI50 (BT-549 breast): 0.191 µM | TGI (BT-549 breast): 0.865 µM | GI50 (SK-MEL-5 melanoma): 0.177 µM | TGI (SK-MEL-5 melanoma): 0.471 µM | GI50 (OVCAR-5 ovarian): 0.0946 µM | TGI (OVCAR-5 ovarian): 1.12 µM
